Usually IC50 stands for the concentration that inhibits the measured activity by half.

The test system of series [1] is A549. The experiment in a line: Reduction of glutathione level in human A549 cells at 100 uM after 48 hrs by fluorometric assay. In kind it is functional. Also on record: scale not given: the % may be the effect or the level left.
Series [2] deals with A549. The experiment in a line: Cell cycle arrest in human A549 cells assessed as accumulation at G1 phase at 0.01 to 100 uM after 24 hrs by propidium idoide staining based flow cytometry. In kind it is functional. Background: A flow cytometer gives signals particle by particle.
In series [3] the test system is A549. The experiment in a line: Induction of apoptosis in human A549 cells assessed as apoptotic cells at 100 uM after 24 hrs by Annexin V/propidium iodide staining based flow cytometry (reference value: 7.7%). In kind it is functional.
A short description of series [4]: Induction of ROS level in anhydrous acetonitrile electrolyte assessed as first half wave redox potential at 2 mM using Ag/AgCl reference electrode by cyclic voltammetry. In kind it is physicochemical. Particulars: 2000 µM.
Series [5] concerns A549. The series is described as follows: Induction of mitochondrial membrane potential loss in human A549 cells at 10 uM after 24 hrs by rhodamine 123 staining based flow cytometry (reference value: 1.7%). In kind it is functional.
In series [6] the test system is A549. The experiment in a line: Cell cycle arrest in human A549 cells assessed as accumulation at sub G1 phase at 0.01 to 100 uM after 24 hrs by propidium idoide staining based flow cytometry. In kind it is functional.
Series [7] relates to A549. The series is described as follows: Induction of apoptosis in human A549 cells assessed as apoptotic cells at 0.1 uM after 24 hrs by Annexin V/propidium iodide staining based flow cytometry (reference value: 7.7%). In kind it is functional.
The test system of series [8] is A549. The series is described as follows: Growth inhibition of human A549 cells assessed as reduction in cell viability after 48 hrs by MTT assay. In kind it is functional, cell-based. Particulars: A549, 48 h.
The subject of series [9] is A549. The series is described as follows: Induction of apoptosis in human A549 cells assessed as cell shrinkage at 1 to 100 uM after 24 hrs by microscopy. In kind it is functional, cell-based.
Series [10] relates to A549. The experiment in a line: Reduction of glutathione level in human A549 cells at 1 uM after 48 hrs by fluorometric assay. More on the design: scale not given: the % may be the effect or the level left. In kind it is functional.
Series [11] concerns A549. The experiment in a line: Induction of mitochondrial membrane potential loss in human A549 cells at 1 uM after 24 hrs by rhodamine 123 staining based flow cytometry (reference value: 1.7%). In kind it is functional.
The subject of series [12] is A549. The series is described as follows: Reduction of glutathione level in human A549 cells at 0.1 uM after 48 hrs by fluorometric assay. In kind it is functional. More on the design: scale not given: the % may be the effect or the level left.
Series [13] in a line: Cytotoxicity against human NCI60 cells assessed as cell growth relative to control. More on the design: concentration or dose not given beside the values. In kind it is functional.
For series [14], the system named is A549. The series is described as follows: Induction of apoptosis in human A549 cells assessed as increase in ROS level at 10 to 100 nM after 4 hrs by DCFH-DA staining based flow cytometry. In kind it is functional, cell-based.
Series [15] in a line: Growth inhibition of human […] cells assessed as reduction in cell viability after 48 hrs by MTT assay. In kind it is cell-based. On the technique in general: Tetrazolium assays rely on reduction of a dye to a coloured formazan, in cell work by metabolically active cells.
The subject of series [16] is A549. The experiment in a line: Reduction of glutathione in human A549 cells assessed as glutathione level after 48 hrs by fluorometric assay. In kind it is functional, cell-based.
Series [17] has as its system A549. The experiment in a line: Induction of apoptosis in human A549 cells assessed as apoptotic cells at 0.01 uM after 24 hrs by Annexin V/propidium iodide staining based flow cytometry (reference value: 7.7%). In kind it is functional.
A short description of series [18]: Induction of ROS level in anhydrous acetonitrile electrolyte assessed as second half wave redox potential at 2 mM using Ag/AgCl reference electrode by cyclic voltammetry. Particulars: 2000 µM. In kind it is physicochemical.
Series [19] relates to A549. The series is described as follows: Induction of apoptosis in human A549 cells assessed as apoptotic cells at 10 uM after 24 hrs by Annexin V/propidium iodide staining based flow cytometry (reference value: 7.7%). In kind it is functional.
Series [20] relates to A549. The series is described as follows: Induction of alteration in mitochondrial membrane potential in human A549 cells after 24 hrs by rhodamine 123 staining based flow cytometry. In kind it is functional, cell-based.
The subject of series [21] is A549. The series is described as follows: Cell cycle arrest in human A549 cells assessed as accumulation at G2 phase at 0.01 to 100 uM after 24 hrs by propidium idoide staining based flow cytometry. In kind it is functional.
Series [22] concerns A549. The experiment in a line: Induction of apoptosis in human A549 cells assessed as nuclear condensation at 100 uM after 24 hrs by microscopy. In kind it is functional, cell-based.
For series [23], the system named is A549. The experiment in a line: Reduction of glutathione level in human A549 cells at 10 uM after 48 hrs by fluorometric assay. More on the design: scale not given: the % may be the effect or the level left. In kind it is functional.
Series [24] relates to A549. The series is described as follows: Induction of apoptosis in human A549 cells assessed as mitochondrial membrane damage at 100 uM after 24 hrs by microscopy. In kind it is functional, cell-based.
The subject of series [25] is A549. The experiment in a line: Induction of apoptosis in human A549 cells assessed as increase in ROS level at 10 uM after 4 hrs by DCFH-DA staining based flow cytometry relative to control. In kind it is functional.
Series [26] deals with A549. The experiment in a line: Induction of mitochondrial membrane potential loss in human A549 cells at 100 uM after 24 hrs by rhodamine 123 staining based flow cytometry (reference value: 1.7%). In kind it is functional.
In series [27] the test system is A549. The experiment in a line: Induction of apoptosis in human A549 cells assessed as apoptotic cells at 1 uM after 24 hrs by Annexin V/propidium iodide staining based flow cytometry (reference value: 7.7%). In kind it is functional.
For series [28], the system named is A549. The series is described as follows: Induction of mitochondrial membrane potential loss in human A549 cells at 10 to 100 nM after 24 hrs by rhodamine 123 staining based flow cytometry (reference value: 1.7%). In kind it is functional.
Series [29] concerns A549. The series is described as follows: Induction of apoptosis in human A549 cells assessed as increase in ROS level at 100 uM after 4 hrs by DCFH-DA staining based flow cytometry relative to control. In kind it is functional.
Series [30] deals with Escherichia coli. The series is described as follows: Induction of Escherichia coli supercoiled pUC19 DNA cleavage at 240 uM after 24 hrs by agarose gel electrophoresis.
The subject of series [31] is A549. The experiment in a line: Cell cycle arrest in human A549 cells assessed as accumulation at S phase at 0.01 to 100 uM after 24 hrs by propidium idoide staining based flow cytometry. In kind it is functional.
Series [32] has as its system A549. The experiment in a line: Selectivity index, ratio of IC50 for human […] cells to IC50 for human A549 cells. In kind it is functional.
In series [33] the test system is Escherichia coli. The experiment in a line: Induction of Escherichia coli supercoiled pUC19 DNA cleavage assessed as appearance of nicked supercoiled DNA after 24 hrs by agarose gel electrophoresis in absence of transition metal complex, light irradiation or oxidative reagent.
Series [34] can be described thus: Induction of ROS level assessed as half reduction potential using saturated calomel electrode by cyclic voltammetry. In kind it is physicochemical.
Series [35] is described as follows: Induction of ROS level assessed as half reduction potential using Ag/AgCl reference electrode by cyclic voltammetry. In kind it is physicochemical.

Activity calls are given as the source filed them. The calls are words filed in the database; no cut-off is given here.

As for `COc1ccc(-n2n[n+](C)c3c2C(=O)c2ccccc2C3=O)cc1.O=S(=O)([O-])C(F)(F)F`, the Activity in series [1] is reported as 12.13%; in [3] it was 61.28%; in series [4] it was -182.5 mV; in series [5], 51.4%; in series [7] it was 11.06%; in series [10], 88.76%. The Activity was 4.1% in [11]; 99.35% in [12]; -24.7% in [13]; “Dose-dependent effect” in series [16]; 8.74% in [17]; -885 mV in series [18]. Also, the Activity in series [19] is 35.44%; in [20], “Dose-dependent effect”; in series [23] it was 23.87%; in series [25] it was 133%; in series [26] it was 88.05%; in [27], 11.07%. The results for the Activity in [28] and in [29] were 2.55% and 226%, respectively. The outcome in series [2], in series [6], in [14], in series [21] and in [31] was inactive. Besides, the results for the IC50 in [8] and in [15] were 4.2 µM and 35 µM, respectively. The result in series [9], in series [22], in series [24] and in series [30] was Active. Further, the “Ratio IC50” value in series [32] is recorded as 8.

In the case of `COc1cc(OC)cc(-n2n[n+](C)c3c2C(=O)c2ccccc2C3=O)c1.O=S(=O)([O-])C(F)(F)F`, the results for the Activity in series [4], in series [13] and in [18] were -182.5 mV, -27.06% and -762 mV, respectively. The result in series [30] was Active.

For the molecule `CCCCCCCCn1n[n+](C)c2c1C(=O)c1ccccc1C2=O.O=S(=O)([O-])C(F)(F)F`, the Activity in series [5] was determined as 25%; in series [25], 108%; in series [26], 50%; in [29], 177%. For the same molecule, in series [8], the IC50 was determined as 83.3 µM.

As for `C[n+]1nn(-c2ccccc2)c2c1C(=O)c1ccccc1C2=O.O=S(=O)([O-])C(F)(F)F`, the Activity is -163.5 mV in series [4], “Dose-dependent effect” in series [33], -10.18% in [13] and -866.5 mV in series [18].

As to `COc1cc(-n2n[n+](C)c3c2C(=O)c2ccccc2C3=O)cc(OC)c1OC.O=S(=O)([O-])C(F)(F)F`, the Activity is reported as -168 mV in series [4], 23.23% in series [13] and -867 mV in series [18]. The outcome in series [30] was Active.

On to `C[n+]1nn(-c2ccc(F)cc2)c2c1C(=O)c1ccccc1C2=O.O=S(=O)([O-])C(F)(F)F`, for which the Activity is -156.5 mV in series [4], 43.38% in series [13] and -886 mV in [18]. In [30], the outcome was Active.

In the case of `C[n+]1nn(-c2ccc(C(F)(F)F)cc2)c2c1C(=O)c1ccccc1C2=O.O=S(=O)([O-])C(F)(F)F`, the Activity in [4] is -130.5 mV; in series [13] it was 58.69%; in [18], -823.5 mV. The result in series [30] was Active.

As to `C[n+]1nn(-c2ccc(Cl)cc2)c2c1C(=O)c1ccccc1C2=O.O=S(=O)([O-])C(F)(F)F`, the Activity in [4] was -148.5 mV; in series [13] it was 101.7%; in series [18], -842.5 mV. For the same molecule, the result in series [30] was Active.

As for `COC1=C(OC)C(=O)C(C/C=C(\C)CC/C=C(\C)CC/C=C(\C)CC/C=C(\C)CC/C=C(\C)CC/C=C(\C)CC/C=C(\C)CC/C=C(\C)CC/C=C(\C)CCC=C(C)C)=C(C)C1=O` [UBIDECARENONE], the Activity in [34] is listed as -602 mV; in [35], -567 mV.

For `COc1cc([C@@H]2c3cc4c(cc3[C@@H](O[C@@H]3O[C@@H]5CO[C@@H](C)O[C@H]5[C@H](O)[C@H]3O)[C@H]3COC(=O)[C@H]23)OCO4)cc(OC)c1O` [ETOPOSIDE], the IC50 in series [8] was 3.9 µM.

For `COc1ccc(-n2n[n+](C)c3c2C(=O)c2ccccc2C3=O)cc1OC.O=S(=O)([O-])C(F)(F)F`, the results for the Activity in series [4], in [13] and in series [18] were -182 mV, -31.51% and -885.5 mV, respectively. Moreover, the outcome in series [30] was Active.

Consider `Cc1ccc(-n2n[n+](C)c3c2C(=O)c2ccccc2C3=O)cc1.O=S(=O)([O-])C(F)(F)F`, for which the figures for the Activity in [4], in [13] and in series [18] were -176 mV, 11.53% and -881.5 mV, respectively. Moreover, in series [30], the result was Active.

The values above are taken from ChEMBL document CHEMBL3769333, “A mode of action study of cationic anthraquinone analogs: a new class of highly potent anticancer agents” (Medchemcomm, 2015).
